“And” between values parts separate entries of the source, which are not always exact repeats. Identical values can stand only once. The source made the active and inactive calls.
Legend:
Escherichia coli = assay: microbe, parasite or virus in culture
[1] = target: T1, Rac GTPase-activating protein 1 (Homo sapiens, UniProt Q9H0H5); assay: blockers of MgcRacGAP-driven Rac1 GTP hydrolysis – biochemical, ADP Hunter fluorescence, primary and confirmatory, confirmation (AID 624330); type: functional
T1 sequence (Q9H0H5 whole entry): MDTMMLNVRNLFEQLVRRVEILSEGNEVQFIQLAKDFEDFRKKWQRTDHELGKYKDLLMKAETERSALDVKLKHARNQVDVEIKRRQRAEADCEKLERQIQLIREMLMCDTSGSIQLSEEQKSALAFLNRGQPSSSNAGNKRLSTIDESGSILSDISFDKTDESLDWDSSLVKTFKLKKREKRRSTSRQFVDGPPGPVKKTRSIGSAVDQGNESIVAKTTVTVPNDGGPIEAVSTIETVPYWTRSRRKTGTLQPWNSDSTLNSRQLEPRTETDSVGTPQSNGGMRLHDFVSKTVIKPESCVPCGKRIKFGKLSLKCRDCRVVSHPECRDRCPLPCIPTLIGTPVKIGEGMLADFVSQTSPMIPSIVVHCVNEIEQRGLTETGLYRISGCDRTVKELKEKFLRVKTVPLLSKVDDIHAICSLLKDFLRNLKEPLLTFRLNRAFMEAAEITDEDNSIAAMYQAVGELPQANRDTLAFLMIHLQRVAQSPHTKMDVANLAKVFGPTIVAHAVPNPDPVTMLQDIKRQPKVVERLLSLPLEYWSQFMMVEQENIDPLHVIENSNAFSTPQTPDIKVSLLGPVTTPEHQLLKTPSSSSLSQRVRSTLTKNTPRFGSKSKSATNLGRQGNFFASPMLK

Cytochrome P450 2C19 = Cytochrome P450 2C19 (Homo sapiens, UniProt P33261); assay: Cytochrome panel assay with activity outcomes. Panel member name: p450-cyp2c19 Compounds with AC50 equal or less than 10 uM are considered active; type: functional; details: read-out: AC50
Cytochrome P450 2C9 = Cytochrome P450 2C9 (Homo sapiens, UniProt P11712)
Cytochrome P450 3A4 = Cytochrome P450 3A4 (Homo sapiens, UniProt P08684);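 note: CYP3A4 tested as one member of a cytochrome P450 panel screen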
Hexokinase = target: T2, Hexokinase (Trypanosoma brucei, UniProt Q38C41); assay: Confirmation assay for inhibitors of Trypanosoma brucei hexokinase 1-Analogue-first series. [Related pubchem assays (depositor defined):AID1430, AID1632, AID2516, AID2560, AID2579, AID2600, AID449725, AID492951]; type: functional
T2 sequence (Q38C41 whole entry): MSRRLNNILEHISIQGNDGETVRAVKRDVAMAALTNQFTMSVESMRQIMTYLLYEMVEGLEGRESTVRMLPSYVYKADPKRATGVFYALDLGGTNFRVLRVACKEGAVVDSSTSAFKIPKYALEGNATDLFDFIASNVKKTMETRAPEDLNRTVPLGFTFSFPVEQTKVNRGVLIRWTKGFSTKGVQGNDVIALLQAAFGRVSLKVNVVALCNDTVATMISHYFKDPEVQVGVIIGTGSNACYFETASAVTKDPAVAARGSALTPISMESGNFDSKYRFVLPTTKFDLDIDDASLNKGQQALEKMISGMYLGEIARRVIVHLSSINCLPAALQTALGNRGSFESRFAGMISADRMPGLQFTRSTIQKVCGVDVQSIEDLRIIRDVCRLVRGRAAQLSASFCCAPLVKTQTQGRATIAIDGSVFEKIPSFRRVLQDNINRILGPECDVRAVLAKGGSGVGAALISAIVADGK

[2] = target: Glucose-6-phosphate 1-dehydrogenase (Homo sapiens, UniProt P11413); assay: inhibition of Homo sapiens G6PD, dose series – biochemical, fluorescence, selectivity assay for P. falciparum G6PD inhibitor project, dose response (AID 504792); type: functional
[3] = HepG2 cell cytotoxicity, dose response, cytotoxicity control for non-replicating M. tuberculosis project (AID 489018); type: functional; details: Mycobacterium tuberculosis
[4] = NIH3T3 cell viability loss – ATP luminescence, mouse fibroblasts, counter-screen, dose response (AID 2010); type: functional, cell-based;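 note: cells exposed to compound for about 90 hours before reading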
INS1 = assay: INS-1E survival protection against cytokine death – cell-based, luminescence, retest, dose response (AID 449756); type: functional; details: Rattus norvegicus, INS1;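 note: cell death triggered by IL-1 beta plus TNF-alpha plus IFN-gamma mixture; protective hits raise ATP signal compared with cytokine alone wells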
Streptokinase A = target: T3, Streptokinase A (Streptococcus pyogenes serotype M1, UniProt P10520); assay: viability-normalized secreted streptokinase activity reduction – plasminogen activation absorbance, OD405, dose response (AID 1914); type: functional, Streptococcus pyogenes M1 GAS;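 note: secreted streptokinase activity via plasminogen activation per viability signal from cell pellet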
T3 sequence (P10520 whole entry): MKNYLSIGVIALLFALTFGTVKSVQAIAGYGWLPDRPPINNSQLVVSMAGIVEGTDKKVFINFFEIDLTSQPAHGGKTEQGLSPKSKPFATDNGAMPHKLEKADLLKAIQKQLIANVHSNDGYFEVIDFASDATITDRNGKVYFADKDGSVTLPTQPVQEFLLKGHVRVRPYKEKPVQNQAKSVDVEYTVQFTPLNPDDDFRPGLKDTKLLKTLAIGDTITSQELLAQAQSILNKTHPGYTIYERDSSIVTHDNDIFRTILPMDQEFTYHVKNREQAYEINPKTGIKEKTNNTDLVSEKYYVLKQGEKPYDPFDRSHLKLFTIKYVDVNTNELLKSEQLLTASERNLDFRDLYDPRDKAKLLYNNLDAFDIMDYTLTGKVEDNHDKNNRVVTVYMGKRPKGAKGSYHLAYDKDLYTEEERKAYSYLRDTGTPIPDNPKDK

[5] = Vero E6 cell cytotoxicity, dose response, cytotoxicity control for non-replicating M. tuberculosis project, secondary assay (AID 492998); type: functional, VeroE6; details: Vero C1008
Streptococcus = assay: GAS UMAA2166 growth inhibition – luminescence, BacTiterGlo, counter-screen for streptokinase expression inhibitor project, dose response (AID 1915); type: functional, organism-based;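 note: potency for reduction of bacterial viability or growth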
[6] = test system: Streptococcus sp. 'group A'; assay: Streptococcus pyogenes SK(-)GAS viability under kanamycin – luminescence, BacTiterGlo, confirmation, counter-screen for streptokinase expression inhibitor project, dose response (AID 1900); type: functional, organism-based
[7] = THP-1 cell cytotoxicity, dose response, cytotoxicity control for non-replicating M. tuberculosis project (AID 489025); type: functional
[8] = Trypanosoma cruzi growth suppression in host cells – NIH3T3 host cells, beta-gal luminescence, confirmation (AID 2044); type: functional, cell-based;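 note: intracellular parasites grown in NIH/3T3 mouse fibroblasts as host cells; luminescent beta-galactosidase reporter signal from transgenic T. cruzi replicating inside host cells; inhibitors lower the luminescence signal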
cells = type: functional
Coagulation factor XII = target: T4, Coagulation factor XII (Homo sapiens, UniProt P00748); type: functional;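 note: activated factor XIIa alpha cleaving a fluorogenic AMC peptide substrate; inhibitor potency from loss of enzyme activity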
T4 sequence (P00748 whole entry): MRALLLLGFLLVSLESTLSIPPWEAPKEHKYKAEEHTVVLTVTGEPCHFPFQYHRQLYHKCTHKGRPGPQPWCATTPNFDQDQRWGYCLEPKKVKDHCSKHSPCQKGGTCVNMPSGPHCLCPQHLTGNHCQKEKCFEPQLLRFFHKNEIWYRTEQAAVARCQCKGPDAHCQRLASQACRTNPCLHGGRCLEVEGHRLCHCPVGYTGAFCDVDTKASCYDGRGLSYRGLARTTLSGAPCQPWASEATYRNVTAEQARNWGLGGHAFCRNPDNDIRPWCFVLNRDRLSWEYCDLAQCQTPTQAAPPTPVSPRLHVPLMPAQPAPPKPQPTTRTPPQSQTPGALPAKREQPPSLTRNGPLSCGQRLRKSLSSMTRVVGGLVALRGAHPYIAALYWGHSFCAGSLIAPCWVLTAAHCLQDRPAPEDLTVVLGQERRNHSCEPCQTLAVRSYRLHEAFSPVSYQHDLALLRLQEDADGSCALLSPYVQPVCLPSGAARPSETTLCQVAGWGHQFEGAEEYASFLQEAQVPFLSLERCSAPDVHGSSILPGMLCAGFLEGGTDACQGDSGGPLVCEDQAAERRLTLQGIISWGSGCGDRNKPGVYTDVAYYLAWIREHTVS

Sequence of Cytochrome P450 3A4 (P08684 whole entry): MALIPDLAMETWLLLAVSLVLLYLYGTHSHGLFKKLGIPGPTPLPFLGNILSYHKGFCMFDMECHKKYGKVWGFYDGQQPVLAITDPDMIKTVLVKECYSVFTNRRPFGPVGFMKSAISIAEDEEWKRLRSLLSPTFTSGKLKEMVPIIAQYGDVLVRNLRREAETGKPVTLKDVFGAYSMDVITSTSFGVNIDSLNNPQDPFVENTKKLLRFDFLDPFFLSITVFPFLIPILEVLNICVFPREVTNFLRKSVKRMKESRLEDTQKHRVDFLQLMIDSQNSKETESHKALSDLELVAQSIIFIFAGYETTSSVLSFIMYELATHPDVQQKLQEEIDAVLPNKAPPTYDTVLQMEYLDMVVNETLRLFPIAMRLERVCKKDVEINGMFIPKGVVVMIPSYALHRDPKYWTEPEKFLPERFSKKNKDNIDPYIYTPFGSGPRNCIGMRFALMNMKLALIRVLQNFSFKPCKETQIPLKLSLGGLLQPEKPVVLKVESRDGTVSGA
Sequence of Cytochrome P450 2C19 (P33261 whole entry): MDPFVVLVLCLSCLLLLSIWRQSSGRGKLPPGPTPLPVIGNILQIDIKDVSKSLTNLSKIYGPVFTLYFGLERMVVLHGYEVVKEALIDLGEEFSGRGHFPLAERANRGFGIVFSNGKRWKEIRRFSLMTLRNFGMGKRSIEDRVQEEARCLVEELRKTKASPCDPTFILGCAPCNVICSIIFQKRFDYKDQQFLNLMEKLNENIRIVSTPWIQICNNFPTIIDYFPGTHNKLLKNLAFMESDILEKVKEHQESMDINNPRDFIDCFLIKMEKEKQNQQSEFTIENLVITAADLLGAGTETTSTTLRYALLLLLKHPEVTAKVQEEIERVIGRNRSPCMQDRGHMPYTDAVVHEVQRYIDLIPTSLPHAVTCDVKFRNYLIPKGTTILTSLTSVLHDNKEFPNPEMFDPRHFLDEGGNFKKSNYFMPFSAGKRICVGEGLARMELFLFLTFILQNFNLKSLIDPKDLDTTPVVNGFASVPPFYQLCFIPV
Sequence of Glucose-6-phosphate 1-dehydrogenase (P11413 whole entry): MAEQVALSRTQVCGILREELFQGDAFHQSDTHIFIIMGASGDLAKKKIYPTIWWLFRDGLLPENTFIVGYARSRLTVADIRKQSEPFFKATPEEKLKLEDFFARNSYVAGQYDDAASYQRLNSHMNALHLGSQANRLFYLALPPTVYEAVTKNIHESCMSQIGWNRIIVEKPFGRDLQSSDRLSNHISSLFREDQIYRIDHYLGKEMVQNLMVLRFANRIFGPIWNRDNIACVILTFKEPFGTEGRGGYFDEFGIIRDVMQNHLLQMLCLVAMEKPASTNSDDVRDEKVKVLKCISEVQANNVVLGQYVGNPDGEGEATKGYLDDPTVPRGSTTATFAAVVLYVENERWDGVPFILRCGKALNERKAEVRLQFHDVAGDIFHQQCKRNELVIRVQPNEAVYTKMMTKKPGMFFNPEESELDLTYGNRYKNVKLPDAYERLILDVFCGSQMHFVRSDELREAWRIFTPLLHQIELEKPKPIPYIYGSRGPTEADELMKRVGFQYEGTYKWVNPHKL
Sequence of Cytochrome P450 2C9 (P11712 whole entry): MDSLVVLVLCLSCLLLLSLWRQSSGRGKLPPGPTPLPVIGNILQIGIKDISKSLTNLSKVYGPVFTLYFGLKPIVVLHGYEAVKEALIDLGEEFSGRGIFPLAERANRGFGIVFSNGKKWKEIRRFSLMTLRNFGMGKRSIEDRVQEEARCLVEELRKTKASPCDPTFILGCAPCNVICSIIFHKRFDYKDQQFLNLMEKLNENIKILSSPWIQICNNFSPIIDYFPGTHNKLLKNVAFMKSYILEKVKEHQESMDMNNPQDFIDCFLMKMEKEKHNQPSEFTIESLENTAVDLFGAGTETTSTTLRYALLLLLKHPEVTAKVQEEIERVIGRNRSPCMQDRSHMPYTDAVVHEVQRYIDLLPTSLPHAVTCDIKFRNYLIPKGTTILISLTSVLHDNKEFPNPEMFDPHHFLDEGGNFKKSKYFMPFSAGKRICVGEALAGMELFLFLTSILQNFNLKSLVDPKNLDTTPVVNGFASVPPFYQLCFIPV

CC(C)C(=O)Nc1ccc(Nc2ccccc2)cc1
AC50 (Escherichia coli): 29.9 µM (active) | IC50 [1]: 51.1 µM (active)

CCCC(=O)Nc1nc2nc(-c3ccccc3)cc(-c3ccccc3)n2n1
AC50 (Cytochrome P450 2C19): 11.2 µM (inconclusive) | AC50 (Cytochrome P450 2C9): 0.0112 µM (inconclusive) | AC50 (Cytochrome P450 3A4): inconclusive

COc1ccc(C(=O)Nc2cc(Cl)ccc2C(=O)O)cc1
IC50 (Hexokinase): 11.2 µM (active) and 8.23 µM (active) | IC50 [2]: > 80 µM (inactive)

CC(C)(C)c1cc(C(=O)N/N=C/c2ccc([N+](=O)[O-])s2)[nH]n1
CC50 [3]: > 20 µM (active) | EC50 [4]: > 60 µM (not active) | AC50 (INS1): 6.87 µM (active) | EC50 (Streptokinase A): > 150 µM (not active) | CC50 [5]: 12 µM (active) | EC50 (Streptococcus): 15.8 µM (active) | EC50 [6]: 12.3 µM (active) | CC50 [7]: 18.9 µM (active) | EC50 [8]: 0.15 µM (active) | IC50 (cells): 5.22 µM (active)

Cc1cnc(CNc2cc(-c3ccccc3Cl)ncn2)cn1
AC50 (Cytochrome P450 3A4): inconclusive

CCN(c1ccccc1)S(=O)(=O)c1ccc(C(=O)Nc2nnc(COC)o2)cc1
IC50 (Coagulation factor XII): > 50 µM (inactive)

From ChEMBL document CHEMBL1201862, “PubChem BioAssay data set” (2004)
